Measurements published in patent publication US20030134848A1, “Substituted 1-aza-2-imino-heterocycles and their use as nicotinic acetylcholin receptors activators” (priority 2000, published 2003).

The compounds below were run against T1, human α4β2 subtype of nicotinic acetylcholine receptors (Homo sapiens, UniProt P17787+P43681) (assay: Agonist activity at human α4β2 nicotinic acetylcholine receptors expressed in Xenopus oocytes (membrane potential holding method)). Settings: 100 μM test compound vs response at 10 μM acetylcholine (100%).
T1 construct: expressed in transfected cells; host or cells: Xenopus laevis oocytes injected with hnACh-R α4 and β2 cRNA (pSP64 polyA vector)
T1 sequence (P43681 29-627 limits assumed): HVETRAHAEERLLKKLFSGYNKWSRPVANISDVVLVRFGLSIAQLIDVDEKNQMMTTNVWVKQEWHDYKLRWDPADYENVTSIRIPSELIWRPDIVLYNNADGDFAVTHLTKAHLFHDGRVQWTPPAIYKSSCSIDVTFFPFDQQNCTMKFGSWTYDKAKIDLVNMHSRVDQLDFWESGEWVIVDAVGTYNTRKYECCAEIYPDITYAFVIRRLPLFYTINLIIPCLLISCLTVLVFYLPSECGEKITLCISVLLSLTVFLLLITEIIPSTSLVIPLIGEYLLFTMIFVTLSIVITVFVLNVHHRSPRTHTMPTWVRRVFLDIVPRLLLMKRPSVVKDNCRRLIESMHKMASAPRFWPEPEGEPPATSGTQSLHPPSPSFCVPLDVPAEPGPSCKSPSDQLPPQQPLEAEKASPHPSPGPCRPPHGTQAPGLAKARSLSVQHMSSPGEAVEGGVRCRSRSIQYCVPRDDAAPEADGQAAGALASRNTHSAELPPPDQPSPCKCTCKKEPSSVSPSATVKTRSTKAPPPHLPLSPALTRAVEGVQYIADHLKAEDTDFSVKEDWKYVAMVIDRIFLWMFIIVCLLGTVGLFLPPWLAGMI
T1 sequence (P17787 26-502): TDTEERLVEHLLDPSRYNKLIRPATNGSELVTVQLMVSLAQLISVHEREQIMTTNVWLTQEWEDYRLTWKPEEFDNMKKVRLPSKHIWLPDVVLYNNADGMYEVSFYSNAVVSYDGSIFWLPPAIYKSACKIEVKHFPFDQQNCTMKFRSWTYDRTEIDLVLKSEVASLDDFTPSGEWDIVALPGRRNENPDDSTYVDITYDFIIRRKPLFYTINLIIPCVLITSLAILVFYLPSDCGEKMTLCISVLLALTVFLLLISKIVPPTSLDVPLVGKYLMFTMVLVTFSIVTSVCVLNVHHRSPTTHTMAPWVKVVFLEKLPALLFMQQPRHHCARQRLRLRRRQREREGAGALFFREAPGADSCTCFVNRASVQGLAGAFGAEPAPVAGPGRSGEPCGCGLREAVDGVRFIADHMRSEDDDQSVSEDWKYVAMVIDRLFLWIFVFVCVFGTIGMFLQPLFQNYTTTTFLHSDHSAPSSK
Format: cell-based
Procedure: The agonist effect in human α4β2 subtype of nicotinic acetylcholine receptors are examined by using human nicotinic acetylcholine receptors prepared in oocytes of Xenopus laevis, which is injected with cRNA from the corresponding cloning cDNA of human α4 and β2 subunits of nicotinic acetylcholine receptors, and to measure the expression of the electric response by adding the test compounds to perfusion solution by means of membrane potential holding method.
The agonist activities of the compounds of the present invention at human 4β2 subtype of nicotinic acetylcholine receptors was evaluated by the following method, which was modified method described by Papke R. L., Thinschmidt J. S., Moulton B. A., Meyer E. M. & Poirier A., Br. J. Pharmacol., 120, 429-438 (1997).
(1) Preparation of cRNA of Human α4β2 Subtype of Nicotinic Acetylcholine Receptors
The cloning of human nicotinic acetylcholine receptor (hnACh-R) α4 cDNA and hnAC-R β2 cDNA were performed, in accordance with the conventional manners, by synthesizing the each DNA primers corresponding to the sequences of hnACh-R α4 cDNA and hnACh-R β2 cDNA [Monteggia L. M. et al., Gene, 155, 189-193 (1995); and Anand R., & Lindstrom J., Nucl. Acids Res., 18, 4272 (1990)], and obtained hnACh-R α4 cDNA and hnACh-R β2 cDNA by polymerase chain reaction (PCR), respectively. The obtained hnACh-R α4 cDNA and hnACh-R β2 cDNA were inserted to the cRNA expression vector (pSP64 polyA) having SP6 RNA promoter to construct hnACh-R α4/pSP64 polyA and hnACh-R β2/pSP64 polyA, respectively. After cutting from expression vector by restriction enzyme (EcoRI), transcription was performed by affecting SP6 RNA polymerase in the presence of cap analogues to obtain hnACh-R α4 cRNA and hnACh-R β2 cRNA, respectively.
(2) Expression of Human α4β2 Subtype Nicotinic Acetylcholine Receptors in Xenopus oocytes
Oocytes were purchased from Kitanihonseibutsukyohzai Co., Ltd., which were already enucleated from Xenopus laevis, and used in this experiment.
The oocytes were treated with collagenase (Sigma type I; 1 mg/ml) in calcium-free modified Birth's solution (88 mM of NaCl, 1 mM of KCl, 2.4 mM of NaHCO3, 0.82 mM of MgSO4, 15 mM of HEPES, pH 7.6) under gently stirring at room temperature for 90 minutes, and washed out the enzyme from the tissue. Then, oocytes were separated from ovarian follicle by tweezers, and isolated oocytes were placed in antibiotics containing modified Birth's solution (88 mM of NaCl, 1 mM of KCl, 2.4 mM of NaHCO3, 0.82 mM of MgSO4, 15 mM of HEPES, pH 7.6, and 0.1 v/v % of mixture solution containing of penicillin and streptomycin for incubation; Sigma Co.). […] In oocytes, heterogeneous quintuple [(α4)2(β2)3] was composed by translation of injected cRNAs, and ion channel receptors were constructed on cell membrane.
(3) Agonist Activities at Human α4β2 Subtype of Nicotinic Acetylcholine Receptors
The recordings of responses at human α4β2 subtype of nicotinic acetylcholine receptors by means of membrane potential holding method were performed as follow. […] The membrane electric potentials were held at −50 mV by mean of the two electric membranes potential holding method (CEZ-1250; Nihon Kohden Co.). Test compounds were added to the perfusion solution, and recorded the peak strength of induced inward current. In order to normalize the responses of test compounds, the responses with acetylcholine (Ach) were recorded before and after application of the test compounds. Generally in the oocytes just after isolated, the response of intrinsic muscarinic acetylcholine receptors, which is inward electric current caused by activation of calcium dependence chloride ion channels with increase of the intracellular calcium concentration by stimulation of receptors, is observed.

| Structure (SMILES) | control % by response at 100 μM of the test compounds |
| --- | --- |
| N=C1NCCCN1CCc1ccc(Cl)nc1 [Compound 12, 1-[2-(6-chloro-3-pyridyl)ethyl]-2-imino-1,2,3,4,5,6-hexahydro-pyrimidine] | (8%) |
| Nc1nccn1CCc1cnccn1 [Compound 31, 2-amino-1-[2-(2-pyrazinyl)ethyl]imidazole] | (15%) |

Same assay, conditions: Xenopus oocytes, held at −50 mV, peak inward current; read-out: Agonist activity (ED50)

| Structure (SMILES) | EC50 [µM] |
| --- | --- |
| Cc1ccc(CCn2ccnc2N)cn1 [Compound 11, 2-amino-1-[2-(6-methyl-3-pyridyl)ethyl]imidazole] | 7.5 |
| Nc1nccn1CCc1cnc(Cl)c(Cl)c1 [Compound 13, 2-amino-1-[2-(5,6-dichloro-3-pyridyl)ethyl]-imidazole] | 2.4 |
| Nc1nccn1CCc1cccnc1 [Compound 14, 2-amino-1-[2-(3-pyridyl)ethyl]imidazole] | 2 |
| Nc1nccn1CCc1cnc(Cl)s1 [Compound 23, 2-amino-1-[2-(2-chloro-5-thiazolyl)ethyl]imidazole] | 13 |
| Nc1nccn1CCc1cncc(Br)c1 [Compound 25, 2-amino-1-[2-(5-bromo-3-pyridyl)ethyl]imidazole] | 3 |
| Cc1cncc(CCn2ccnc2N)c1 [Compound 27, 2-amino-1-[2-(5-methyl-3-pyridyl)ethyl]imidazole] | 6.2 |
| Nc1nccn1CCc1cncnc1 [Compound 29, 2-amino-1-[2-(5-pyrimidyl)ethyl]imidazole] | 3.7 |
| Nc1nccn1CCc1cccnn1 [Compound 30, 2-amino-1-[2-(3-pyridazinyl)ethyl]imidazole] | 46 |
| Nc1nccn1CCc1ccnnc1 [Compound 34, 2-amino-1-[2-(4-pyridazinyl)ethyl]imidazole] | 170 |
